Experimental data taken from patent US20050282747A1, “Methods and compositions for wound healing” (The Research Foundation of State University of New York at …, priority 2003, published 2005).

What was measured:
NIH 3T3 fibroblasts [1] = test: Cell proliferation inside the RGD-peptide coupled HA-DTPH/PEGDA hydrogel (MTT assay, F-DA/PI staining); format: cell-based; details: NIH 3T3 encapsulated at 1×10^6/ml; day 15 compared to day 1
Description: Cell proliferation inside the RGD-peptide coupled HA-DTPH/PEGDA hydrogel. NIH 3T3 fibroblasts were suspended in 1.25% (w/v) HA-DTPH solution in complete medium (pH 7.4) at a density of 1×10^6/ml, and then 1 ml of stock peptide-coupled PEGDA or blank PEGDA solution (see hydrogel preparation) was added into 4 ml of cell/HA-DTPH mixture solution. After mixed, 200 μl of the mixture of HA-DTPH/PEG-diacrylate/T31 fibroblasts was injected into each well of 24-well plates. After 1 h, 1.0 ml of complete medium was added into each well and incubated in 37° C. 5% CO2 incubator. The medium was changed every day without damaging the hydrogel. The viability of NIH 3T3 fibroblast inside hydrogel following 1, 5 and 15 d in vitro culture was determined by a double-staining procedure (Saha, et al., Dev. Comp. Immunol. 27:351, 2003) using fluorescein diacetate (F-DA) and propidium iodide (PI). Briefly, cell-hydrogel constructs were rinsed twice with DPBS buffer, stained with F-DA (0.02 mg/ml)(Molecular Probes, Eugene, Oreg.) and PI (0.2 μg/ml)(Sigma) at room temperature for 3 min, rinsed twice with DPBS buffer, stored on ice, and observed under confocal microscope (Zeiss Axioplan 2 Imaging System, LSM 5 Pa).
The cell proliferation inside hydrogel following in vitro culture of day 1, 5, 10 and 15 was determined by MTT (3-[4,5-dimethylthiazol-2-yl]-2,5-diphenyltetrazolium bromide) assay (Sigma). A 1% MTT in serum-free media solution was added to each well containing the cell-hydrogel construct. Active mitochondria metabolize the tetrazolium salt to form an insoluble formazin dye. After 8 h of incubation, the constructs were placed in 10 ml glass vials and 2 ml 0.04 N HCl in isopropanol was added to extract the formazin. The absorbance was recorded at 550 nm with an OPTI Max microplate reader (Molecular Devices) and was converted into a cell number based on standard curves.

NIH 3T3 fibroblasts [2] = test: Injectable fibrous tissue regeneration in nude mouse, histology and procollagen immunohistochemistry; format: in vivo, nude mice
Description: RGD-peptide coupled HA-DTPH/PEGDA hydrogel for injectable fibrous tissue regeneration in nude mouse. Animal experiments were carried out according to NIH guidelines for the care and use of laboratory animals (NIH publication #85-23 rev. 1985). Male nude mice (n=12) (Simonsen Laboratories Inc., Gilroy, Calif.), 4-6 weeks old were anesthetized with 2.5% isoflurane using a VetEquip inhalation anesthesia system (Pleasanton, Calif.). NIH 3T3 fibroblasts were suspended in 1.25% (w/v) HA-DTPH solution in complete medium (pH 7.4) at a density of 50×10^6 cell/ml, and then 1 ml stock CRGDS-coupled PEGDA (peptide concentration 10/100) or blank PEGDA (see 2.4 hydrogel preparation) was added into 4 ml cell/HA-DTPH mixture solution and mixed. Each nude mouse received four 300 μl s.c. dorsal injections by means of an 18-gauge needle under the dorsal panniculus camosus (two 300 μl solution with cells and two 300 μl solution without cells as control). At each time point (4 and 8 weeks after implantation), two nude mice were sacrificed, and the implants with the surrounding tissues were removed from the mouse, fixed in 10% buffered formalin solution (Sigma) for 24 h, embedded in paraffin, cut into 5-μm sections, and mounted onto slides.
Histological and immunohistochemical staining. […]

NIH 3T3 fibroblasts [3] = test: Cell spreading on RGD-peptide coupled HA-DTPH/PEGDA hydrogel surface, NIH 3T3; format: cell-based
Description: (§1) Cell culture. Dermal fibroblasts from a person (CF-31) (Clonetics, San Diego) and NIH 3T3 fibroblast (ATCC) were routinely cultured in completed DMEM/F-12 medium supplied with 10% new-born calf serum (for NIH 3T3 fibroblast) or fetal bovine serum (for CF-31 fibroblast), 2 mM L-glutamine and 100 units/ml antibotic-antimycotic (GIBCO BRL, Life Technologies, Grand Island, N.Y.), and 50 μg/ml ascorbic acid (Sigma) at 37° C. in a humidified 5% CO2 incubator. Monolayers of fibroblasts in their growth phase (ca. 90% confluence) were dissociated with trypsin/1 mM EDTA in DPBS, centrifuged and resuspended in the serum free medium or complete medium.
Cell spreading on the RGD-peptides coupled HA-DTPH/PEGDA hydrogel surface. HA-DTPH/PEGDA hydrogels or hydrogel films in 24-well plate were rinsed with serum free medium or complete medium 3 times, and then CF-31 and NIH 3T3 fibroblasts were seeded on the surface of the hydrogel or hydrogel film surface at a density of 4×10^4/well. Then, 1 ml of serum free medium or complete medium was added into each well, and the cells were cultured at 37° C. in a humidified 5% CO2 incubator. At 2, 4, 8 and 18 h post seeding, 0.4 ml of 10% formalin solution (Sigma) was added into each well to fix cell for 15 min. The cells were then stained at room temperature with 0.1% crystal violet in 200 mM boric acid (pH 8.0) for 15 minutes. […]

CF-31 fibroblasts = test: Cell spreading on RGD-peptide coupled HA-DTPH/PEGDA hydrogel surface, CF-31; format: cell-based, human; details: for percentage of round cells / percentage of spreading cells: complete medium, 18 h post seeding
Description: as §1
Cell spreading on the RGD-peptides coupled HA-DTPH/PEGDA hydrogel surface. HA-DTPH/PEGDA hydrogels or hydrogel films in 24-well plate were rinsed with serum free medium or complete medium 3 times, and then CF-31 and NIH 3T3 fibroblasts were seeded on the surface of the hydrogel or hydrogel film surface at a density of 4×10^4/well. Then, 1 ml of serum free medium or complete medium was added into each well, and the cells were cultured at 37° C. in a humidified 5% CO2 incubator. At 2, 4, 8 and 18 h post seeding, 0.4 ml of 10% formalin solution (Sigma) was added into each well to fix cell for 15 min. The cells were then stained at room temperature with 0.1% crystal violet in 200 mM boric acid (pH 8.0) for 15 minutes. Photomicrographs of the cytoplasmic-stained cells were taken a 100×total magnification using an inverted Nikon microscope with a CCD camera on a minimum of five random fields per well (n=3 per composition). The bundled Spot 3.0 software (Diagnostic Instruments, Sterling Heights, MI) was used to classify the cell morphology into 3 categories viz. round, partially spread or fully spread as reported by Neff etc[47]. It was defined that cells with surface area <2000 pixels^2 were completely round, 2000 pixels^2 <cells with area <8000 pixels^2 had few cytoplasmic extensions although they maintained a somewhat round appearance, and cells with surface areas >8000 pixels^2 were fully spreading and had multiple cytoplasmic extensions in various directions.

NIH 3T3 fibroblasts [4] = test: Cell proliferation on the RGD-peptide coupled HA-DTPH/PEGDA hydrogel surface (MTS assay); format: cell-based; details: PEGDA 3400; for proliferation of NIH 3T3 fibroblasts on surface: in 24 h, peptide concentration in bulk 0.268 mM
Description: Cell proliferation on the RGD-peptide coupled HA-DTPH/PEGDA hydrogel surface. Peptide-coupled HA-DTPH/PEGDA hydrogels or hydrogel films in 24-well plates were rinsed 3 times with complete medium, and then CF-31 and NIH 3T3 fibroblasts were seeded on the surface of the hydrogel or hydrogel film surface at a density of 1×10^4/well. After that 1 ml of complete medium was added into each well, and the cells were cultured at 37° C. in a humidified 5% CO2 incubator and the medium was changed daily. At different time points (day 1, 2, 3 and 4), the cell number was determined by MTS assay (Cell-Titer 96 Proliferation Kit, Promega, Madison, Wis.) as previously described Shu, et al., Biomacromolecules 3:1304, 2002; Ren and Tang, Anticancer Res. 19:403, 1999) and the absorption recorded at 550 nm with an OPTI Max microplate reader (Molecular Devices). Cell numbers were obtained using standard curves generated from the assay.

[5] = PEG spacer molecular weight 3400, peptide concentration in bulk 0.268 mM
[6] = peptide concentration in bulk 0.0054 mM
[7] = peptide concentration in bulk 0.0268 mM
[8] = peptide concentration in bulk 0.134 mM
[9] = peptide concentration in bulk 0.268 mM

Substance | cell proliferation inside the hydrogel (NIH 3T3 fibroblasts [1]) [%] | fibrous tissue and procollagen versus hydrogel lacking the peptide (NIH 3T3 fibroblasts [2]; cell-seeded hydrogel, 4 weeks post-injection) | signs of biological incompatibility (necrosis or damage to the surrounding tissues) (NIH 3T3 fibroblasts [2]; s.c. injection in nude mice, gel formed in vivo) | cell area (NIH 3T3 fibroblasts [3]; at 4 and 8 h) | round cell percent (CF-31 fibroblasts; PEG spacer molecular weight 700, peptide concentration in bulk 0.268 mM) [%] | round cell percent (CF-31 fibroblasts; [5]) [%] | spreading percent of CF-31 fibroblast (CF-31 fibroblasts; [5]) [%] | percentage of round cells (CF-31 fibroblasts; [6]) [%] | percentage of spreading cells (CF-31 fibroblasts; [6]) [%] | percentage of spreading cells (CF-31 fibroblasts; [7]) [%] | percentage of spreading cells (CF-31 fibroblasts; [8]) [%] | percentage of round cells (CF-31 fibroblasts; [9]) [%] | percentage of spreading cells (CF-31 fibroblasts; [9]) [%] | cell density relative to cell culture polystyrene control (NIH 3T3 fibroblasts [4]; hydrogel film surface, 4 days culture, CRGDS concentration in bulk 0.268 mM) | proliferation of NIH 3T3 fibroblasts on surface (NIH 3T3 fibroblasts [4]) | cell morphology on hydrogel surface (NIH 3T3 fibroblasts [3]; 4 and 8 h post-seeding) | cell attachment and spreading (CF-31 fibroblasts; CF-31, serum free medium)
CRGDS | 253 | More uniform fibrous tissue and procollagen | No signs of biological incompatibility | larger than that for CCRGDS | 75.6 | 9.4 | 53 | 51.2 | 19.1 | 31.3 | 48.2 | 18 | 53.0 | ca. 80% | 1.64 fold | – | –
CRDGS [reference compound] | 245 | – | – | – | – | – | – | – | – | – | – | – | – | – | no spreading or proliferation was observed | the cells were rounded | failed to promote cell spreading
CCRGDS | 253 | – | – | – | – | – | – | – | 8.3 | 12.4 | 36.8 | – | 46.5 | – | 1.50 fold | – | –
